Test results as given in PubChem BioAssay AID2060625 (Molecular Pharmacology Branch, DTP, NCI, 2025).

Test system: 186277-243-T-J2-PDC spheroids with HUVEC/MSC, viability
Assay: Anticancer human tumor 186277-243-T-J2-PDC patient-derived colon adenocarcinoma cell line growth inhibition [CLK]
Conditions: for IC50: curve of first compound; for viability, T/C: stronger effect = lower value
How it was run: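 Multi-cell-type spheroids combined patient-derived tumor cells with HUVEC endothelial cells and human mesenchymal stem cells. Paired agents were dosed in half-log steps down from about clinical Cmax, or from 10 microM where Cmax was unknown.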

[1] = second compound 0.0316 µM, first compound 0.0316 µM
[2] = second compound 0.0316 µM, first compound 0.1 µM
[3] = second compound 0.0316 µM, first compound 0.316 µM
[4] = second compound 0.0316 µM, first compound 1 µM
[5] = second compound 0.0316 µM, first compound 3.16 µM
[6] = second compound 0.0316 µM, first compound 10 µM
[7] = second compound 0.1 µM, first compound 0.0316 µM
[8] = second compound 0.1 µM, first compound 0.1 µM
[9] = second compound 0.1 µM, first compound 0.316 µM
[10] = second compound 0.1 µM, first compound 1 µM
[11] = second compound 0.1 µM, first compound 3.16 µM
[12] = second compound 0.1 µM, first compound 10 µM
[13] = second compound 0.316 µM, first compound 0.0316 µM
[14] = second compound 0.316 µM, first compound 0.1 µM
[15] = second compound 0.316 µM, first compound 0.316 µM
[16] = second compound 0.316 µM, first compound 1 µM
[17] = second compound 0.316 µM, first compound 3.16 µM
[18] = second compound 0.316 µM, first compound 10 µM
[19] = second compound 1 µM, first compound 0.0316 µM
[20] = second compound 1 µM, first compound 0.1 µM
[21] = second compound 1 µM, first compound 0.316 µM
[22] = second compound 1 µM, first compound 1 µM
[23] = second compound 1 µM, first compound 3.16 µM
[24] = second compound 1 µM, first compound 10 µM
[25] = second compound 3.16 µM, first compound 0.0316 µM
[26] = second compound 3.16 µM, first compound 0.1 µM
[27] = second compound 3.16 µM, first compound 0.316 µM
[28] = second compound 3.16 µM, first compound 1 µM
[29] = second compound 3.16 µM, first compound 3.16 µM
[30] = second compound 3.16 µM, first compound 10 µM
[31] = second compound 10 µM, first compound 0.0316 µM
[32] = second compound 10 µM, first compound 0.1 µM
[33] = second compound 10 µM, first compound 0.316 µM
[34] = second compound 10 µM, first compound 1 µM
[35] = second compound 10 µM, first compound 3.16 µM
[36] = second compound 10 µM, first compound 10 µM
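Also: compound exposure lasted seven days before readout.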
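For viability, T/C in this document: 100% = DMSO vehicle control wells.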

**Q.** For `C#Cc1c(F)ccc2cc(O)cc(-c3ncc4c(N5CC6CCC(C5)N6)nc(OCC56CCCN5CC(F)C6)nc4c3F)c12` (centres undefined) + CNC(=O)c1ccc(Nc2nc(OC3CCCC3)c3c(-c4ccc5nc(C)oc5c4)c[nH]c3n2)c(OC)c1, which IC50 (second compound 0.0316 µM) is on record?
**A.** The IC50 was 244 nM.

**Q.** What about the IC50 (second compound 0.1 µM) of the same molecule?
**A.** The IC50 was less than 31.6 nM.

**Q.** And the IC50 (second compound 0.316 µM)?
**A.** Its IC50 is less than 31.6 nM.

**Q.** What about the IC50 (second compound 1 µM) of the same molecule?
**A.** Its IC50 is less than 31.6 nM.

**Q.** What about the IC50 (second compound 3.16 µM) of the same molecule?
**A.** The IC50 was less than 31.6 nM.

**Q.** And the IC50 (second compound 10 µM)?
**A.** Its IC50 is less than 31.6 nM.

**Q.** And the viability, T/C [1]?
**A.** Its viability, T/C is 85.1%.

**Q.** What about the viability, T/C [2] of the same molecule?
**A.** Its viability, T/C is 74.1%.

**Q.** And the viability, T/C [3]?
**A.** Its viability, T/C is 42.3%.

**Q.** And the viability, T/C [4]?
**A.** The viability, T/C was 20.4%.

**Q.** What about the viability, T/C [5] of the same molecule?
**A.** The viability, T/C was 15.4%.

**Q.** And the viability, T/C [6]?
**A.** Its viability, T/C is 9.35%.

**Q.** What about the viability, T/C [7] of the same molecule?
**A.** Its viability, T/C is 32.4%.

**Q.** What about the viability, T/C [8] of the same molecule?
**A.** Its viability, T/C is 20.2%.

**Q.** What about the viability, T/C [9] of the same molecule?
**A.** The viability, T/C was 12.4%.

**Q.** And the viability, T/C [10]?
**A.** Its viability, T/C is 10.1%.

**Q.** And the viability, T/C [11]?
**A.** The viability, T/C was 9.23%.

**Q.** And the viability, T/C [12]?
**A.** Its viability, T/C is 7.22%.

**Q.** And the viability, T/C [13]?
**A.** Its viability, T/C is 16.6%.

**Q.** And the viability, T/C [14]?
**A.** The viability, T/C was 10.6%.

**Q.** What about the viability, T/C [15] of the same molecule?
**A.** Its viability, T/C is 9.98%.

**Q.** And the viability, T/C [16]?
**A.** Its viability, T/C is 7.75%.

**Q.** And the viability, T/C [17]?
**A.** Its viability, T/C is 6.06%.

**Q.** What about the viability, T/C [18] of the same molecule?
**A.** The viability, T/C was 5.84%.

**Q.** What about the viability, T/C [19] of the same molecule?
**A.** The viability, T/C was 13.1%.

**Q.** What about the viability, T/C [20] of the same molecule?
**A.** The viability, T/C was 9.92%.

**Q.** And the viability, T/C [21]?
**A.** Its viability, T/C is 6.68%.

**Q.** And the viability, T/C [22]?
**A.** The viability, T/C was 8.68%.

**Q.** What about the viability, T/C [23] of the same molecule?
**A.** Its viability, T/C is 7.28%.

**Q.** What about the viability, T/C [24] of the same molecule?
**A.** Its viability, T/C is 3.31%.

**Q.** What about the viability, T/C [25] of the same molecule?
**A.** Its viability, T/C is 12%.

**Q.** And the viability, T/C [26]?
**A.** Its viability, T/C is 11.4%.

**Q.** And the viability, T/C [27]?
**A.** Its viability, T/C is 6.47%.

**Q.** What about the viability, T/C [28] of the same molecule?
**A.** The viability, T/C was 5.65%.

**Q.** What about the viability, T/C [29] of the same molecule?
**A.** Its viability, T/C is 6.73%.

**Q.** What about the viability, T/C [30] of the same molecule?
**A.** Its viability, T/C is 4.61%.

**Q.** What about the viability, T/C [31] of the same molecule?
**A.** Its viability, T/C is 15.6%.

**Q.** And the viability, T/C [32]?
**A.** The viability, T/C was 9.24%.

**Q.** What about the viability, T/C [33] of the same molecule?
**A.** Its viability, T/C is 6.48%.

**Q.** What about the viability, T/C [34] of the same molecule?
**A.** Its viability, T/C is 5.74%.

**Q.** What about the viability, T/C [35] of the same molecule?
**A.** The viability, T/C was 6.36%.

**Q.** What about the viability, T/C [36] of the same molecule?
**A.** The viability, T/C was 3.45%.

**Q.** How did the IC50 (second compound 0.0316 µM) turn out when `C=C(F)C(=O)N1CCN(c2nc(OCC3CCCN3C)nc3c2CCN(c2cccc4cccc(Cl)c24)C3)CC1CC#N` (centres undefined) + CNC(=O)c1ccc(Nc2nc(OC3CCCC3)c3c(-c4ccc5nc(C)oc5c4)c[nH]c3n2)c(OC)c1 was run?
**A.** Its IC50 is 5730 nM.

**Q.** What about the IC50 (second compound 0.1 µM) of the same molecule?
**A.** The IC50 was 4220 nM.

**Q.** And the IC50 (second compound 0.316 µM)?
**A.** The IC50 was less than 31.6 nM.

**Q.** What about the IC50 (second compound 1 µM) of the same molecule?
**A.** The IC50 was less than 31.6 nM.

**Q.** What about the IC50 (second compound 3.16 µM) of the same molecule?
**A.** The IC50 was less than 31.6 nM.

**Q.** What about the IC50 (second compound 10 µM) of the same molecule?
**A.** Its IC50 is less than 31.6 nM.

**Q.** What about the viability, T/C [1] of the same molecule?
**A.** Its viability, T/C is 98%.

**Q.** What about the viability, T/C [2] of the same molecule?
**A.** Its viability, T/C is 96.1%.

**Q.** What about the viability, T/C [3] of the same molecule?
**A.** Its viability, T/C is 99.2%.

**Q.** What about the viability, T/C [4] of the same molecule?
**A.** Its viability, T/C is 93.8%.

**Q.** And the viability, T/C [5]?
**A.** Its viability, T/C is 114%.

**Q.** And the viability, T/C [6]?
**A.** The viability, T/C was 3.01%.

**Q.** What about the viability, T/C [7] of the same molecule?
**A.** Its viability, T/C is 68.4%.

**Q.** And the viability, T/C [8]?
**A.** Its viability, T/C is 70.6%.

**Q.** What about the viability, T/C [9] of the same molecule?
**A.** The viability, T/C was 69.8%.

**Q.** And the viability, T/C [10]?
**A.** The viability, T/C was 61.2%.

**Q.** And the viability, T/C [11]?
**A.** Its viability, T/C is 65.9%.

**Q.** What about the viability, T/C [12] of the same molecule?
**A.** The viability, T/C was 2.67%.

**Q.** What about the viability, T/C [13] of the same molecule?
**A.** The viability, T/C was 45.1%.

**Q.** What about the viability, T/C [14] of the same molecule?
**A.** Its viability, T/C is 48.2%.

**Q.** And the viability, T/C [15]?
**A.** Its viability, T/C is 42.7%.

**Q.** What about the viability, T/C [16] of the same molecule?
**A.** Its viability, T/C is 46%.

**Q.** What about the viability, T/C [17] of the same molecule?
**A.** The viability, T/C was 48.1%.

**Q.** What about the viability, T/C [18] of the same molecule?
**A.** The viability, T/C was 0.4%.

**Q.** And the viability, T/C [19]?
**A.** Its viability, T/C is 36%.

**Q.** And the viability, T/C [20]?
**A.** The viability, T/C was 39.8%.

**Q.** And the viability, T/C [21]?
**A.** Its viability, T/C is 34.5%.

**Q.** And the viability, T/C [22]?
**A.** Its viability, T/C is 35.9%.

**Q.** What about the viability, T/C [23] of the same molecule?
**A.** Its viability, T/C is 36.7%.

**Q.** What about the viability, T/C [24] of the same molecule?
**A.** Its viability, T/C is 1.8%.

**Q.** What about the viability, T/C [25] of the same molecule?
**A.** Its viability, T/C is 37.3%.

**Q.** And the viability, T/C [26]?
**A.** Its viability, T/C is 35.2%.

**Q.** And the viability, T/C [27]?
**A.** Its viability, T/C is 32.3%.

**Q.** What about the viability, T/C [28] of the same molecule?
**A.** The viability, T/C was 36.7%.

**Q.** And the viability, T/C [29]?
**A.** The viability, T/C was 34.1%.

**Q.** What about the viability, T/C [30] of the same molecule?
**A.** The viability, T/C was 0.54%.

**Q.** What about the viability, T/C [31] of the same molecule?
**A.** The viability, T/C was 37.3%.

**Q.** What about the viability, T/C [32] of the same molecule?
**A.** Its viability, T/C is 35.4%.

**Q.** And the viability, T/C [33]?
**A.** The viability, T/C was 37.9%.

**Q.** What about the viability, T/C [34] of the same molecule?
**A.** Its viability, T/C is 38%.

**Q.** What about the viability, T/C [35] of the same molecule?
**A.** Its viability, T/C is 27.1%.

**Q.** What about the viability, T/C [36] of the same molecule?
**A.** Its viability, T/C is 0.4%.
